# Laboratory results reported in paper PMC10821124, “Dimeric 3,5-Bis(benzylidene)-4-piperidones: Tumor-Selective Cytotoxicity and Structure-Activity Relationships” (Medicines, 2024).
# What was measured:
# Assay type in all cases: cell-based
# [1] = tested on: human tumour cell lines HL-60, HSC-2, HSC-3, HSC-4; assay: Cytotoxicity, average over the four human tumour cell lines
# Description: (§1) Human promyelocytic leukemia [HL-60 (RCB3683)] (purchased from Riken Cell Bank, Tsukuba, Japan) was cultured at 37 °C in RPMI1640 medium (Fujifilm Wako Pure Chemical Co., Osaka, Japan) supplemented with 10% heat (56 °C, 30 min) inactivated FBS (Sigma-Aldrich Inc. St. Louis, MO, USA), 100 U/mL penicillin G, and 100 µg/mL streptomycin sulfate in a humidified 5% CO2 incubator (MCO-170 AICUVD-P, Panasonic Healthcare Co., Ltd., Gunma, Japan). Human oral squamous cell carcinoma (OSCC) cell lines derived from tongue [HSC-2 (RCB1945), HSC-3 (RCB1975), HSC-4 (RCB1902)] (Riken Cell Bank), and human normal oral cells (gingival fibroblasts, HGF; pulp cell, HPC; periodontal ligament fibroblast, HPLF), established from the first premolar extracted tooth in the lower jaw and periodontal tissues of a child, according to the guidelines of Meikai University Ethic Committee (No. A0808), were cultured in DMEM medium (Fujifilm Wako Pure Chemical Co.) supplemented with 10% FBS and antibiotics. The compounds in Series 2–4 were evaluated against HL-60, HSC-2, HSC-3, HSC-4, HGF, HPC, and HPLF cells based on a literature procedure, as described previously. In brief, near confluent cells were incubated in triplicate for 48 h at 37 °C with different concentrations ([…], 6.3, 12.5, 25, 50, 100 µM) of the compounds; then, viable cell numbers were measured using the MTT method. From the dose–response curve, a 50% cytotoxic concentration (CC50) was determined. All samples were dissolved in dimethylsulfoxide (DMSO). The toxicity of DMSO alone was calculated and subtracted. The CC50 values were determined from dose–response curves.
# [2] = tested on: human promyelocytic leukemia HL-60 cells; assay: Cytotoxicity, MTT method, HL-60 cells
# Description: as §1
# [3] = tested on: human oral squamous cell carcinoma HSC-4 cells; assay: Cytotoxicity, MTT method, HSC-4 cells
# Description: as §1
# [4] = tested on: human oral squamous cell carcinoma HSC-2 cells; assay: Cytotoxicity, MTT method, HSC-2 cells
# Description: as §1
# [5] = tested on: human gingival fibroblasts (HGF); assay: Cytotoxicity, MTT method, HGF non-malignant cells; settings: 48 h, mean ± SD
# Description: as §1
# [6] = tested on: human normal cells HGF, HPC, HPLF; assay: Cytotoxicity, average over the three human normal cells; settings: average of HGF, read-out: AVE CC50, human normal cells
# Description: as §1
# [7] = as above; settings: human, average of HGF, HPC, HPLF; read-out: AVE CC50, human normal cells
# Description: as §1
# [8] = tested on: human periodontal ligament fibroblasts (HPLF); assay: Cytotoxicity, MTT method, HPLF non-malignant cells; settings: 48 h, mean ± SD
# Description: as §1
# human pulp cells (HPC) = assay: Cytotoxicity, MTT method, HPC non-malignant cells; settings: 48 h, mean ± SD
# Description: as §1
# [9] = tested on: human oral squamous cell carcinoma HSC-3 cells; assay: Cytotoxicity, MTT method, HSC-3 cells
# Description: as §1
smiles,measurement,setting,value
"N[C@@H](Cc1ccc(N(CCCl)CCCl)cc1)C(=O)O [Melphalan, reference compound]",CC50,"[1]; Homo sapiens, read-out: AVE. CC50, human tumour cell lines",26.2 µM
same,AVE SI,[1]; average of the four SI values,21.0
same,CC50,"[2]; Homo sapiens, HL-60, 48 h, read-out: CC50 HL-60",0.89 ± 0.17 µM
same,SI (selectivity index) HL-60,[2]; average CC50 non-malignant cells / CC50 HL-60,75.6
same,CC50,"[3]; Homo sapiens, HSC-4, 48 h, read-out: CC50 HSC-4",46 ± 6 µM
same,SI (selectivity index) HSC-4,[3]; average CC50 non-malignant cells / CC50 HSC-4,1.46
same,CC50,"[4]; Homo sapiens, HSC-2, 48 h, read-out: CC50 HSC-2",12 ± 2.7 µM
same,SI (selectivity index) HSC-2,[4]; average CC50 non-malignant cells / CC50 HSC-2,5.61
same,CC50,[5],73 ± 15 µM
same,CC50,[6],67.3 µM
same,CC50 at 48 h,[7],> 50 µM
same,CC50,[8],92 ± 7.8 µM
same,CC50,human pulp cells (HPC),37 ± 7.3 µM
same,CC50,"[9]; Homo sapiens, HSC-3, 48 h, read-out: CC50 HSC-3",46 ± 31 µM
same,SI (selectivity index) HSC-3,[9]; average CC50 non-malignant cells / CC50 HSC-3,1.46
